Experimental data published in US12319676B2, “Substituted amide compounds useful as farnesoid X receptor modulators” (BRISTOL-MYERS SQUIBB COMPANY, priority 2019, dated 2025).

Biological target: T1, human FXR (Homo sapiens, UniProt Q96RI1)
T1 construct: expressed in transfected cells; host or cells: HEK293 cells stably carrying a 5xGal4 response element-luciferase reporter, transiently transfected with pcDNA3.1-Gal4-FXR
T1 sequence (Q96RI1 262-486 limits assumed): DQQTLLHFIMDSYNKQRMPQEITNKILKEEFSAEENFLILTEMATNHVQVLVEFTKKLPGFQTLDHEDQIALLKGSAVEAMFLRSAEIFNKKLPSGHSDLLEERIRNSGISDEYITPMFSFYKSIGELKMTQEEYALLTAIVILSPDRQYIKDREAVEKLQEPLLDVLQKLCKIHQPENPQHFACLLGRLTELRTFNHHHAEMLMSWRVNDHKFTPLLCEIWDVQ
Experiment: transient human FXR/Gal4-luciferase reporter assay
Format: cell-based
Conditions: Gal4-hFXR fusion construct, luciferase reporter in HEK293 cells; overnight incubation; response as percentage of 8 μM GW-4064 control
Outline: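 HEK293 cells stably carrying a 5×Gal4-response-element firefly luciferase reporter were transiently transfected with a Gal4 DBD-human FXR LBD fusion, then treated overnight with compounds at 37 °C. Steady-Glo luminescence, minus DMSO background, was expressed as percent of the response to 8 μM GW-4064.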

Row | Structure (SMILES) | EC50 [µM]
1 | Cc1noc(C23CCC(CN(C(=O)C4CCCCC4)c4cccc(C(=O)Nc5nccs5)c4)(CC2)CC3)n1 [Example 82, 3-(N-((4-(3-methyl-1,2,4-oxadiazol-5-yl)bicyclo[2.2.2]octan-1-yl)methyl)cyclohexanecarboxamido)-N-(thiazol-2-yl)benzamide] | 3.01
2 | CCOc1ccc(Nc2cccc(N(CC34CCC(c5nc(C(C)(C)C)no5)(CC3)CC4)C(=O)C34CC(F)(C3)C4)c2)cc1 [Example 83, N-((4-(3-(tert-butyl)-1,2,4-oxadiazol-5-yl)bicyclo[2.2.2]octan-1-yl)methyl)-N-(3-((4-ethoxyphenyl)amino)phenyl)-3-fluorobicyclo[1.1.1]pentane-1-carboxamide] | 1.13
3 | CC(C)(C)c1nc(C23CCC(CN(C(=O)C45CC(F)(C4)C5)c4cccc(Nc5ccc(OC(F)F)cc5)c4)(CC2)CC3)no1 [Example 84, N-((4-(5-(tert-butyl)-1,2,4-oxadiazol-3-yl)bicyclo[2.2.2]octan-1-yl)methyl)-N-(3-((4-(difluoromethoxy)phenyl)amino)phenyl)-3-fluorobicyclo[1.1.1]pentane-1-carboxamide] | 0.084
4 | CCOc1ccc(Nc2cccc(N(CC34CCC(c5noc(C(C)(C)C)n5)(CC3)CC4)C(=O)C34CC(F)(C3)C4)c2)cc1 [Example 85, N-((4-(5-(tert-butyl)-1,2,4-oxidial-3-yl)bicyclo[2.2.2]octan-1-yl)methyl)-N-(3-((4-ethoxyphenyl)amino)phenyl)-3-fluorobicyclo[1.1.1]pentane-1-carboxamide] | 0.608
5 | CCc1ccc(Nc2cccc(N(CC34CCC(c5noc(C(C)(C)C)n5)(CC3)CC4)C(=O)C34CC(F)(C3)C4)c2)cc1 [Example 86, N-((4-(5-(tert-butyl)-1,2,4-oxadiazol-3-yl)bicyclo[2.2.2]octan-1-yl)methyl)-N-(3-((4-ethylphenyl)amino)phenyl)-3-fluorobicyclo[1.1.]pentane-1-carboxamide] | 0.519
6 | CC(C)(C)c1nc(C23CCC(CN(C(=O)C45CC(F)(C4)C5)c4cccc(Nc5ccc(C(F)(F)F)cc5)c4)(CC2)CC3)no1 [Example 87, N-((4-(5-(tert-butyl)-1,2,4-oxadiazol-3-yl)bicyclo[2.2.2]octan-1-yl)methyl)-3-fluoro-N-(3-((4-(trifluoromethyl)phenyl)amino)phenyl)bicyclo[1.1.1]pentane-1-carboxamide] | 2
7 | CC(C)(C)c1nc(C23CCC(CN(C(=O)C45CC(F)(C4)C5)c4cccc(Nc5ccc(F)cc5)c4)(CC2)CC3)no1 [Example 88, N-((4-(5-(tert-butyl)-1,2,4-oxadiazol-3-yl)bicyclo[2.2.2]octan-1-yi)methyl)-3-fluoro-N-(3-((4-fluorophenyl)amino)phenyl)bicyclo[1.1.1]pentane-1-carboxamide] | 0.179
8 | COC(=O)CCc1cccc(N(CC23CCC(c4ccc(N(C)C)cc4)(CC2)CC3)C(=O)C2CCCCC2)c1 [Example 89, Methyl 3-(3-(N-((4-(4-(dimethylamino)phenyl)bicyclo[2.2.2]octan-1-yl)methyl)cyclohexanecarboxamido)phenyl)propanoate] | 1.12
9 | CS(=O)(=O)c1cccc(N(CC23CCC(c4nc(C5CC5)no4)(CC2)CC3)C(=O)[C@H]2C[C@](O)(C(F)(F)F)C2)c1 [Example 90, (1S,3S)—N-((4-(3-cyclopropyl-1,2,4-oxadiazol-5-yl)bicyclo[2.2.2]octan-1-yl)methyl)-3-hydroxy-N-(3-(methylsulfonyl)phenyl)-3-(trifluoromethyl)cyclobutane-1-carboxamide] | 4
10 | N#CC1(c2ccc(Nc3cccc(N(CC45CCC(c6noc(C7(F)CC7)n6)(CC4)CC5)C(=O)[C@H]4C[C@](O)(C(F)(F)F)C4)c3)cc2)CC1 [Example 91, (1S,3S)—N-(3-((4-(1-cyanocyclopropyl)phenyl)amino)phenyl)-N-((4-(5-(1-fluorocyclopropyl)-1,2,4-oxadiazol-3-yl)bicyclo[2.2.2]octan-1-yl)methyl)-3-hydroxy-3-(trifluoromethyl)cyclobutane-1-carboxamide] | 2.19
11 | CC(C)(C#N)Oc1ccc(Nc2cccc(N(CC34CCC(c5ccc(C(C)(F)F)cn5)(CC3)CC4)C(=O)[C@H]3C[C@](O)(C(F)(F)F)C3)c2)cc1 [Example 92, (1S,3S)—N-(3-((4-((2-cyanopropan-2-yl)oxy)phenyl)amino)phenyl)-N-((4-(5-(1,1-difluoroethyl)pyridin-2-yl)bicyclo[2.2.2]octan-1-yl)methyl)-3-hydroxy-3-(trifluoromethyl)cyclobutane-1-carboxamide] | 2.03
12 | CC(F)(F)c1ccc(C23CCC(CN(c4cccc(Nc5ccc(C6(C#N)CC6)cc5)c4)C(=O)[C@H]4C[C@](O)(C(F)(F)F)C4)(CC2)CC3)nc1 [Example 93, (1S,3S)—N-(3-((4-(1-cyanocyclopropyl)phenyl)amino)phenyl)-N-((4-(5-(1,1-difluoroethyl)pyridin-2-yl)bicyclo[2.2.2]octan-1-yl)methyl)-3-hydroxy-3-(trifluoromethyl)cyclobutane-1-carboxamide] | 1.42
13 | CC(C)(C)c1noc(C23CCC(CN(C(=O)C45CC(F)(C4)C5)c4cncc(C#N)c4)(CC2)CC3)n1 [Example 94, N-((4-(3-(tert-butyl)-1,2,4-oxadiazol-5-yl)bicyclo[2.2.2]octan-1-yl)methyl)-N-(5-cyanopyridin-3-yl)-3-fluorobicyclo[1.1.1]pentane-1-carboxamide] | 1.32

Other lines, results leading:

Row | EC50 [µM] | Structure (SMILES)
14 | 0.181 | CC(C)(F)c1nc(C23CCC(CN(C(=O)N[C@H]4CC[C@](C)(O)CC4)c4cccc(C#N)c4)(CC2)CC3)no1 [Example 95, 1-(3-cyanophenyl)-1-((4-(5-(2-fluoropropan-2-yl)-1,2,4-oxadiazol-3-yl)bicyclo[2.2.2]octan-1-yl)methyl)-3-((1R,4R)-4-hydroxy-4-methylcyclohexyl)urea]
15 | 1 | CC(C)(CO)CNC(=O)N(CC12CCC(c3noc(C(C)(C)F)n3)(CC1)CC2)c1cccc(C#N)c1 [Example 97, 1-(3-cyanophenyl)-1-((4-(5-(2-fluoropropan-2-yl)-1,2,4-oxadiazol-3-yl)bicyclo[2.2.2]octan-1-yl)methyl)-3-(3-hydroxy-2,2-dimethylpropyl)urea]
16 | 0.23 | CC(F)(F)c1nc(C23CCC(CN(C(=O)N[C@H]4CC[C@H](O)CC4)c4cccc(C#N)c4)(CC2)CC3)no1 [Example 98, 1-(3-cyanophenyl)-1-((4-(5-(1,1-difluoroethyl)-1,2,4-oxadiazol-3-yl)bicyclo[2.2.2]octan-1-yl)methyl)-3-((1R,4R)-4-hydroxycyclohexyl)urea]
17 | 0.391 | CC(F)(F)c1nc(C23CCC(CN(C(=O)N[C@H]4CC[C@](C)(O)CC4)c4cccc(C#N)c4)(CC2)CC3)no1 [Example 99, 1-(3-cyanophenyl)-1-((4-(5-(1,1-difluoroethyl)-1,2,4-oxadiazol-3-yl)bicyclo[2.2.2]octan-1-yl)methyl)-3-((1R,4R)-4-hydroxy-4-methylcyclohexyl)urea]
18 | 1.48 | CC(C)(CO)CNC(=O)N(CC12CCC(c3noc(C(C)(F)F)n3)(CC1)CC2)c1cccc(C#N)c1 [Example 100, 1-(3-cyanophenyl)-1-((4-(5-(1,1-difluoroethyl)-1,2,4-oxadiazol-3-yl)bicyclo[2.2.2]octan-1-yl)methyl)-3-(3-hydroxy-2,2-dimethylpropyl)urea]
19 | 1.52 | CC(C)(F)c1nc(C23CCC(CN(C(=O)N[C@H]4CC[C@H](O)CC4)c4ccc(F)c(Br)c4)(CC2)CC3)no1 [Example 101, 1-(3-bromo-4-fluorophenyl)-1-((4-(5-(2-fluoropropan-2-yl)-1,2,4-oxadiazol-3-yl)bicyclo[2.2.2]octan-1-yl)methyl)-3-((1R,4R)-4-hydroxycyclohexyl)urea]
20 | 0.183 | CC(C)(C)c1nc(C23CCC(CN(C(=O)C45CC(F)(C4)C5)c4cccc(Nc5ncc(OC(F)F)cn5)c4)(CC2)CC3)no1 [Example 102, N-((4-(5-(tert-butyl)-1,2,4-oxadiazol-3-yl)bicyclo[2.2.2]octan-1-yl)methyl)-N-(3-((5-(difluoromethoxy)pyrimidin-2-yl)amino)phenyl)-3-fluorobicyclo[1.1.1]pentane-1-carboxamide]
21 | 0.187 | CC(C)(C)c1nc(C23CCC(CN(C(=O)C45CC(F)(C4)C5)c4cccc(Nc5cnc(C6CC6)nc5)c4)(CC2)CC3)no1 [Example 103, N-((4-(5-(tert-butyl)-1,2,4-oxadiazol-3-yl)bicyclo[2.2.2]octan-1-yl)methyl)-N-(3-((2-cyclopropylpyrimidin-5-yl)amino)phenyl)-3-fluorobicyclo[1.1.1]pentane-1-carboxamide]
22 | 0.221 | CC(C)(C)c1nc(C23CCC(CN(C(=O)C45CC(F)(C4)C5)c4cccc(Nc5ccc(OC(F)F)cn5)c4)(CC2)CC3)no1 [Example 104, N-((4-(5-(tert-butyl)-1,2,4-oxadiazol-3-yl)bicyclo[2.2.2]octan-1-yl)methyl)-N-(3-((5-(difluoromethoxy)pyridin-2-yl)amino)phenyl)-3-fluorobicyclo[1.1.1]pentane-1-carboxamide]
23 | 0.292 | O=C(N(CC12CCC(c3ccc(C(F)(F)F)cn3)(CC1)CC2)c1cccc(Nc2ncc(C3CC3)cn2)c1)C12CC(F)(C1)C2 [Example 105, N-(3-((5-cyclopropylpyrimidin-2-yl)amino)phenyl)-3-fluoro-N-((4-(5-(trifluoromethyl)pyridin-2-yl)bicyclo[2.2.2]octan-1-yl)methyl)bicyclo[1.1.1]pentane-1-carboxamide]
